Results: patent US20190079079A1, “3-D TISSUE CULTURE BASED METHOD TO ASSESS MITOCHONDRIAL IMPAIRMENT” (INSPHERO AG, priority 2016, published 2019)
Structures can show the parent of a compound that is named as a salt. Where two headings read alike, the source gives them in different places.

Assays:
[1] = tested on: 3D primary human hepatocytes microtissues (IPHH_02); test: Seahorse XF Analyzer measurement of spare respiratory capacity (microtissue-specific respiration rate, MTSRR) after 48 h compound exposure; settings: High: IC50_MTSRR<0.75×IC50_CV/CYT; Low: IC50_MTSRR<IC50_CV/CYT and ≥0.75×IC50_CV/CYT; No: IC50_MTSRR≥IC50_CV/CYT (CV/CYT by CellTiter-Glo)
Experimental: (§1) B. Coating of Seahorse Spheroid plates • 20 uL of Poly-D-Lysine (100 ug/mL diluted in cell culture grade water) were added to each well of the Seahorse Spheroid plate (Incubation for 20min @ RT) • After coating, the Seahorse Spheroid plate was washed with 200 uL of sterile water and wash was removed (Washing step repeated once) • Seahorse Spheroid plate has been air dried for a few minutes
(§2) D. Seahorse XF Analyzer Run • While cell incubation fill up the ports of the cartridge according to the Seahorse manufacturer's protocol • Setup groups and parameters for the measurement (basal: 7 cycles, oligomycin 2 uM: 6 cycles, FCCP 0.5 uM: 3 cycles, FCCP 1 uM: 3 cycles, Rot/AA 0.5 uM: 9 cycles) • Start the measurement
(§3) DILI classification: Drug-induced liver injury according to Gustafsson et al, 2014 (N=negative, P=positive). CMax=concentration of candidate compound used in Gustafsson et al, 2014; CTop=concentration of candidate compound used herein; IC50CV/Cyt determined by the CellTiter-Glo Luminescent Cell Viability Assay (Promega, Madison, US) as disclosed herein, IC50MTSRR determined as inhibition on spare respiratory capacity (SPARE), as disclosed herein; MOS: Margin of safety; High Mito-toxic risk: IC5O_MTSRR<0.75×IC5O_CV/CYT; Low Mito-toxic risk: IC5O_MTSRR<IC5O_CV/CYT and IC5O_MTSRR≥0.75×IC5O_CV/CYT; No Mito-toxic risk: IC5O_MTSRR≥IC5O_CV/CYT

[2] = categorized by Gustafsson et al; cited from earlier work
[3] = tested on: 3D primary human hepatocytes microtissues (IPHH_02)
Experimental: as §1, §2, §3

Row | Compound | Mitochondrial toxicity risk [1] | DILI classification [2] | Mitochondrial toxicity risk [3]
1 | CN(C)C(=N)N=C(N)N [Metformin HCl] | low mitochondrial toxicity | not liver toxic | –
2 | O=c1[nH]c(=O)n([C@@H]2O[C@H](CO)[C@@H](O)[C@@H]2F)cc1I [Fialuridine] | – | liver toxic | not have specific mitochondrial toxicity
